Experimental data reported in patent US20110028566A1, “COMPOSITIONS AND PRODUCTS CONTAINING CYCLOALIPHATIC DIOL ANTIMICROBIAL AGENTS AND METHODS OF USING THE COMPOSITIONS AND PRODUCTS” (EASTMAN CHEMICAL COMPANY, priority 2009, published 2011).

How the values were obtained:
Test in all cases: Microbial challenge testing in BPW
Assay type in all cases: cell-based
Bacillus subtilis = details: BPW, w/v % in label, average of replicates; for Grade code, B. subtilis, 3 Day: 3 days incubation; for Grade code, B. subtilis, 14 Day: 14 days incubation; for Grade code, B. subtilis, 30 Days: 30 days incubation
Description: (§1) The microorganisms used in challenge tests are given in Table 3, designated as either ATCC (American Type Culture Collection) or wild type. These wild type organisms were problematic organisms previously isolated from chemical products. In the description for each organism, the bacteria are indicated as either GN (Gram negative) or GP (Gram positive).
(§2) All of the microorganisms were grown in Tryptose Soy Broth (TSB), DIFCO™ available from Becton, Dickinson and Company, containing 1% dextrose. Aspergillus niger and Candida albicans were incubated at 22° C.±2° C. for at least 96 hours. All bacteria were incubated at 35° C.±2° C. in a humidified incubator for at least 96 hours.
(§3) The following procedure was followed to determine the amount of each challenge material (inoculum broth) required to produce a 10^8 cfu/mL challenge, which is equivalent to a final test-sample microbial concentration of 10^5 to 10^6 cfu (colony-forming units)/mL.
(§4) Using a sterile serological pipette, 1 mL of the growth from each TSB culture was transferred into tubes containing 9 mL phosphate buffer (pH 7.2) and mixed thoroughly. This process was repeated to make serial 1:10 dilutions. Then 0.1 mL of each sample and dilution was inoculated onto agar plates to produce the equivalent of a further 1:10 dilution. C. albicans and A. niger were inoculated onto SDA and bacteria were inoculated onto Plate Count Agar (PCA), DIFCO™ available from Becton, Dickinson and Company. The 0.1 mL aliquots were evenly distributed on the plates using the spread-plate technique. The spread-plate technique is performed by spreading the aliquot over the entire plate surface using a sterile spreading rod while rotating the plate with a rotary auto-plater. After the inoculum was absorbed completely, each plate was inverted and incubated (fungi at 22° C.±2° C. and bacteria at 35° C.±2° C.).
(§5) After incubation for at least 48 hours, colonies that had developed on the agar plates were counted and recorded with the corresponding dilution. If counting had to be delayed temporarily, plates were refrigerated, preferably no more than 24 hours, until they could be counted. The number of cfu/mL was determined by multiplying the count by the dilution factor for that particular plate.
(§6) Turbidity in Nepholemetric Turbidity Units (NTU) was measured for each serial dilution using the HF-Micro 100 Model Turbidimeter. For each microorganism, the plate counts were compared to the turbidity readings.
(§7) Control substrates (“broth alone”) were prepared for each microorganism separately in triplicate by adding 13.5 mL of BPW (pH 7.0) containing 1% (w/v) dextrose to each 20-mL glass tube; then adding 1.5 mL challenge material to produce a final concentration at time zero of 10^5 to 10^6 cfu/mL and a total volume of 15 mL.
(§8) Test sample substrates were prepared containing each test material (1,4-CHDM, etc) or combination of test materials at the concentrations shown in Tables 5 and 6. Sample substrates were prepared in triplicate, except those substrates containing PE or CG which were prepared in duplicate. Substrates were prepared by adding BPW containing 1% (w/v) dextrose to each 20-mL glass tube, then adding the test material in the amount appropriate to achieve the desired weight/volume percent (g/100 mL) and to obtain a total volume of BPW with dextrose and test material of 13.5 mL. Then 1.5 mL challenge material was added to produce a final concentration at time zero of 10^5 to 10^6 cfu/mL of the respective organism and a total test sample substrate volume of 15 mL.
(§9) After mixing, all challenged substrates were incubated at 35° C.±2° C. for 14 days and then at ambient room temperature.

[1] = system: Staphylococcus epidermidis; details: for Grade code, S. epidermidis, 3 Days / Grade code, S. epidermidis, 13 Days / Grade code, S. epidermidis, 30 Days: BPW, w/v % in label, average of replicates
Description: as §1, §2, §3, §4, §5, §6, §7, §8, §9

Streptococcus mutans = system: Streptococcus mutans
Description: as §1, §2, §3, §4, §5, §6, §7, §8, §9

OCC1CCC(CO)CC1 (stereo not shown) [1,4-CHDM, 1,4-cyclohexanedimethanol]
Grade code, B. subtilis, 3 Day (Bacillus subtilis; listed as 0.5% AB): 4 (1001 to 10,000 colonies (thus 10,000 cfu/mL to 100,000 cfu/mL))
Grade code, B. subtilis, 3 Day (Bacillus subtilis; listed as 1.25% AB): 4 (1001 to 10,000 colonies (thus 10,000 cfu/mL to 100,000 cfu/mL))
Grade code, B. subtilis, 3 Day (Bacillus subtilis; listed as 2.5% AB): 3 (101 to 1000 colonies (thus 1000 to 10,000 cfu/mL))
Grade code, B. subtilis, 14 Day (Bacillus subtilis; listed as 0.5% AB): 4 (1001 to 10,000 colonies (thus 10,000 cfu/mL to 100,000 cfu/mL))
Grade code, B. subtilis, 14 Day (Bacillus subtilis; listed as 1.25% AB): 4 (1001 to 10,000 colonies (thus 10,000 cfu/mL to 100,000 cfu/mL))
Grade code, B. subtilis, 14 Day (Bacillus subtilis; listed as 2.5% AB): 2 (52 to 100 colonies counted (thus 520 to 1000 cfu/mL))
Grade code, B. subtilis, 30 Days (Bacillus subtilis; listed as 0.5% AB): 4 (1001 to 10,000 colonies (thus 10,000 cfu/mL to 100,000 cfu/mL))
Grade code, B. subtilis, 30 Days (Bacillus subtilis; listed as 1.25% AB): 4 (1001 to 10,000 colonies (thus 10,000 cfu/mL to 100,000 cfu/mL))
Grade code, B. subtilis, 30 Days (Bacillus subtilis; listed as 2.5% AB): 1 (1 to 51 colonies counted (thus 10 to 510 cfu/mL))
Grade code S. epidermidis ([1]; 0.5%, 3 days incubation): 4 (1001 to 10,000 colonies (thus 10,000 cfu/mL to 100,000 cfu/mL))
Grade code S. epidermidis ([1]; 0.5%, 13 days incubation): 4 (1001 to 10,000 colonies (thus 10,000 cfu/mL to 100,000 cfu/mL))
Grade code S. epidermidis ([1]; 0.5%, 30 days incubation): 4 (1001 to 10,000 colonies (thus 10,000 cfu/mL to 100,000 cfu/mL))
Grade code S. epidermidis ([1]; 1.25%, 3 days incubation): 2 (52 to 100 colonies counted (thus 520 to 1000 cfu/mL))
Grade code S. epidermidis ([1]; 1.25%, 13 days incubation): 0.7
Grade code S. epidermidis ([1]; 1.25%, 30 days incubation): 2 (52 to 100 colonies counted (thus 520 to 1000 cfu/mL))
Grade code S. epidermidis ([1]; 2.5%, 3 days incubation): 0.7
Grade code S. epidermidis ([1]; 2.5%, 13 days incubation): 0 (No growth detected or <1 colony (thus <10 cfu/mL))
Grade code S. epidermidis ([1]; 2.5%, 30 days incubation): 0 (No growth detected or <1 colony (thus <10 cfu/mL))
Grade code, S. epidermidis, 3 Days ([1]; 3 days incubation, listed as 0.5% AB): 4 (1001 to 10,000 colonies (thus 10,000 cfu/mL to 100,000 cfu/mL))
Grade code, S. epidermidis, 3 Days ([1]; 3 days incubation, listed as 1.25% AB): 2 (52 to 100 colonies counted (thus 520 to 1000 cfu/mL))
Grade code, S. epidermidis, 3 Days ([1]; 3 days incubation, listed as 2.5% AB): 0.7
Grade code, S. epidermidis, 13 Days ([1]; 13 days incubation, listed as 0.5% AB): 4 (1001 to 10,000 colonies (thus 10,000 cfu/mL to 100,000 cfu/mL))
Grade code, S. epidermidis, 13 Days ([1]; 13 days incubation, listed as 1.25% AB): 0.7
Grade code, S. epidermidis, 13 Days ([1]; 13 days incubation, listed as 2.5% AB): 0 (No growth detected or <1 colony (thus <10 cfu/mL))
Grade code, S. epidermidis, 30 Days ([1]; 30 days incubation, listed as 0.5% AB): 4 (1001 to 10,000 colonies (thus 10,000 cfu/mL to 100,000 cfu/mL))
Grade code, S. epidermidis, 30 Days ([1]; 30 days incubation, listed as 1.25% AB): 2 (52 to 100 colonies counted (thus 520 to 1000 cfu/mL))
Grade code, S. epidermidis, 30 Days ([1]; 30 days incubation, listed as 2.5% AB): 0 (No growth detected or <1 colony (thus <10 cfu/mL))
Grade code S. mutans (Streptococcus mutans; 0.5%, 3 days incubation): 4 (1001 to 10,000 colonies (thus 10,000 cfu/mL to 100,000 cfu/mL))
Grade code S. mutans (Streptococcus mutans; 0.5%, 13 days incubation): 4 (1001 to 10,000 colonies (thus 10,000 cfu/mL to 100,000 cfu/mL))
Grade code S. mutans (Streptococcus mutans; 0.5%, 30 days incubation): 4 (1001 to 10,000 colonies (thus 10,000 cfu/mL to 100,000 cfu/mL))
Grade code S. mutans (Streptococcus mutans; 1.25%, 3 days incubation): 4 (1001 to 10,000 colonies (thus 10,000 cfu/mL to 100,000 cfu/mL))
Grade code S. mutans (Streptococcus mutans; 1.25%, 13 days incubation): 2 (52 to 100 colonies counted (thus 520 to 1000 cfu/mL))
Grade code S. mutans (Streptococcus mutans; 1.25%, 30 days incubation): 2 (52 to 100 colonies counted (thus 520 to 1000 cfu/mL))
Grade code S. mutans (Streptococcus mutans; 2.5%, 3 days incubation): 2 (52 to 100 colonies counted (thus 520 to 1000 cfu/mL))
Grade code S. mutans (Streptococcus mutans; 2.5%, 13 days incubation): 0 (No growth detected or <1 colony (thus <10 cfu/mL))
Grade code S. mutans (Streptococcus mutans; 2.5%, 30 days incubation): 0 (No growth detected or <1 colony (thus <10 cfu/mL))
Grade code, S. mutans, 3 Day (Streptococcus mutans; BPW, 3 days incubation, w/v % in label, average of replicates, listed as 0.5% AB): 4 (1001 to 10,000 colonies (thus 10,000 cfu/mL to 100,000 cfu/mL))
Grade code, S. mutans, 3 Day (Streptococcus mutans; BPW, 3 days incubation, w/v % in label, average of replicates, listed as 1.25% AB): 4 (1001 to 10,000 colonies (thus 10,000 cfu/mL to 100,000 cfu/mL))
Grade code, S. mutans, 3 Day (Streptococcus mutans; BPW, 3 days incubation, w/v % in label, average of replicates, listed as 2.5% AB): 2 (52 to 100 colonies counted (thus 520 to 1000 cfu/mL))
Grade code, S. mutans, 13 Day (Streptococcus mutans; BPW, 13 days incubation, w/v % in label, average of replicates, listed as 0.5% AB): 4 (1001 to 10,000 colonies (thus 10,000 cfu/mL to 100,000 cfu/mL))
